Test results reported in US12077503B2, “Substituted cyclic amides and their use as herbicides” (FMC CORPORATION, priority 2015, dated 2024).

Assays:
Format in all cases: in vivo
Kochia (Kochia scoparia) [1] = experiment: Test A preemergence; settings: Bassia scoparia, pre-emergence, 240 h
In short: (§1)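 Visual injury scores from 0, no effect, to 100, complete control, were assigned versus untreated controls roughly 10 d after treatment in the greenhouse. Test chemicals, formulated with surfactant in a non-phytotoxic solvent, were applied to planted seeds as a preemergence soil spray or postemergence to one- to two-leaf plants 2 to 10 cm tall, in loam–sand soil.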

[2] = tested on: barnyardgrass (Echinochloa crus-galli); experiment: Test A preemergence; settings: Echinochloa crus-galli, pre-emergence, 240 h
In short: as §1

[3] = tested on: giant foxtail (Setaria faberii); experiment: Test A preemergence; settings: Setaria faberi, pre-emergence, 240 h
In short: as §1

[4] = tested on: pigweed (Amaranthus retroflexus); experiment: Test A preemergence; settings: Amaranthus retroflexus, pre-emergence, 240 h
[5] = tested on: ragweed (common ragweed, Ambrosia elatior); experiment: Test A preemergence; settings: Ambrosia artemisiifolia, pre-emergence, 240 h
In short: as §1

[6] = tested on: ryegrass, Italian (Italian ryegrass, Lolium multiflorum); experiment: Test A preemergence; settings: Lolium multiflorum, pre-emergence, 240 h
In short: as §1

[7] = tested on: Galium (catchweed bedstraw, Galium aparine); experiment: Test A postemergence; settings: Galium, post-emergence, 240 h, read-out: Plant response rating, Galium
In short: as §1

Kochia (Kochia scoparia) [8] = experiment: Test A postemergence; settings: Bassia scoparia, post-emergence, 240 h, read-out: Plant response rating, Kochia
In short: as §1

[9] = tested on: barnyardgrass (Echinochloa crus-galli); experiment: Test A postemergence; settings: Echinochloa crus-galli, post-emergence, 240 h, read-out: Plant response rating, Barnyardgrass
In short: as §1

[10] = tested on: blackgrass (Alopecurus myosuroides); experiment: Test A postemergence; settings: Alopecurus myosuroides, post-emergence, 240 h, read-out: Plant response rating, Blackgrass
In short: as §1

corn (Zea mays) = experiment: Test A postemergence; settings: Zea mays, post-emergence, 240 h
In short: as §1

[11] = tested on: giant foxtail (Setaria faberii); experiment: Test A postemergence; settings: Setaria faberi, post-emergence, 240 h, read-out: Plant response rating, Foxtail, Giant
In short: as §1

[12] = tested on: pigweed (Amaranthus retroflexus); experiment: Test A postemergence; settings: Amaranthus retroflexus, post-emergence, 240 h, read-out: Plant response rating, Pigweed
In short: as §1

[13] = tested on: ragweed (common ragweed, Ambrosia elatior); experiment: Test A postemergence; settings: Ambrosia artemisiifolia, post-emergence, 240 h, read-out: Plant response rating, Ragweed
In short: as §1

[14] = tested on: ryegrass, Italian (Italian ryegrass, Lolium multiflorum); experiment: Test A postemergence; settings: Lolium multiflorum, post-emergence, 240 h, read-out: Plant response rating, Ryegrass, Italian
In short: as §1

[15] = tested on: wheat (Triticum aestivum); experiment: Test A postemergence; settings: Triticum aestivum, post-emergence, 240 h, read-out: Plant response rating, Wheat
In short: as §1

[16] = tested on: barnyardgrass (Echinochloa crus-galli); experiment: Test B flooded paddy test; settings: Echinochloa crus-galli, 250 g ai/ha, Flood; 0 to 100 scale where 0 is no effect and 100 is complete control; read-out: Barnyardgrass plant response rating
In short: (§2)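 Compound goes directly into floodwater once pots are flooded 3 cm above soil, targeting plants at two leaves; the water depth is then held for the test duration. Plants sit 13–15 d in a greenhouse and are rated visually, 100 denoting complete control.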

[17] = tested on: ducksalad (Heteranthera limosa); experiment: Test B flooded paddy test; settings: Heteranthera limosa, 250 g ai/ha, Flood; 0 to 100 scale where 0 is no effect and 100 is complete control; read-out: Ducksalad plant response rating
In short: as §2

rice (Oryra sativa) = experiment: Test B flooded paddy test; settings: Oryza sativa, 250 g ai/ha, Flood; 0 to 100 scale where 0 is no effect and 100 is complete control; read-out: Rice plant response rating
In short: as §2

[18] = tested on: sedge, umbrella (small-flower umbrella sedge, Cyperus difformis); experiment: Test B flooded paddy test; settings: Cyperus difformis, 250 g ai/ha, Flood; 0 to 100 scale where 0 is no effect and 100 is complete control; read-out: Sedge, Umbrella plant response rating
In short: as §2

[19] = 125 g ai/ha, Postemergence, visual injury after approximately 10 d, 0 to 100 scale where 0 is no effect and 100 is complete control
[20] = 500 g ai/ha, postemergence, visual injury, 0 to 100 scale (0 no effect, 100 complete control), approx. 10 d

CN1CC[C@H](c2ccc(OC(F)(F)F)cc2)[C@@H](C(=O)Nc2ccc(F)c(F)c2F)C1=O [Compound 1000]
90%: pest or weed control at 500 g/ha ([3]; 500 g ai/ha, preemergence, visual injury rating about 10 d after treatment, 0 to 100 scale (0 no effect, 100 complete control), read-out: Foxtail, Giant plant response rating) | pest or weed control at 250 g/ha [17]
70%: pest or weed control at 125 g/ha ([3]; 125 g ai/ha, Preemergence, visual injury rating after approximately 10 d, read-out: Foxtail, Giant plant response rating (0 to 100 scale, 0 is no effect, 100 is complete control))
60%: pest or weed control at 500 g/ha ([2]; 500 g ai/ha, preemergence, visual injury rating about 10 d after treatment, 0 to 100 scale (0 no effect, 100 complete control), read-out: Barnyardgrass plant response rating) | pest or weed control at 125 g/ha [9, 19]
40%: pest or weed control at 500 g/ha ([4]; 500 g ai/ha, preemergence, visual injury rating about 10 d after treatment, 0 to 100 scale (0 no effect, 100 complete control), read-out: Pigweed plant response rating) | pest or weed control at 125 g/ha (Kochia (Kochia scoparia) [8]; [19]) | pest or weed control at 500 g/ha (Kochia (Kochia scoparia) [8]; [20])
0%: pest or weed control at 125 g/ha (Kochia (Kochia scoparia) [1]; 125 g ai/ha, Preemergence, visual injury rating after approximately 10 d, read-out: Kochia plant response rating (0 to 100 scale, 0 is no effect, 100 is complete control)) | pest or weed control at 500 g/ha (Kochia (Kochia scoparia) [1]; 500 g ai/ha, preemergence, visual injury rating about 10 d after treatment, 0 to 100 scale (0 no effect, 100 complete control), read-out: Kochia plant response rating) | pest or weed control at 125 g/ha ([2]; 125 g ai/ha, Preemergence, visual injury rating after approximately 10 d, read-out: Barnyardgrass plant response rating (0 to 100 scale, 0 is no effect, 100 is complete control)) | pest or weed control at 125 g/ha ([5]; 125 g ai/ha, Preemergence, visual injury rating after approximately 10 d, read-out: Ragweed plant response rating (0 to 100 scale, 0 is no effect, 100 is complete control)) | pest or weed control at 500 g/ha ([5]; 500 g ai/ha, preemergence, visual injury rating about 10 d after treatment, 0 to 100 scale (0 no effect, 100 complete control), read-out: Ragweed plant response rating) | pest or weed control at 125 g/ha ([6]; 125 g ai/ha, Preemergence, visual injury rating after approximately 10 d, read-out: Ryegrass, Italian plant response rating (0 to 100 scale, 0 is no effect, 100 is complete control)) | pest or weed control at 125 g/ha [7, 19] | pest or weed control at 500 g/ha [7, 20] | pest or weed control at 125 g/ha [10, 19] | pest or weed control at 500 g/ha [10, 20] | Corn plant response rating (crop injury, 0 = no effect, 100 = complete kill) at 125 g/ha (corn (Zea mays); [19]) | pest or weed control at 125 g/ha [11, 19] | pest or weed control at 125 g/ha [12, 19] | pest or weed control at 500 g/ha [12, 20] | pest or weed control at 125 g/ha [13, 19] | pest or weed control at 500 g/ha [13, 20] | pest or weed control at 125 g/ha [14, 19] | pest or weed control at 500 g/ha [14, 20] | plant injury at 125 g/ha [15, 19] | plant injury at 500 g/ha [15, 20] | pest or weed control at 250 g/ha [16] | pest or weed control at 250 g/ha (rice (Oryra sativa)) | pest or weed control at 250 g/ha [18]
20%: pest or weed control at 125 g/ha ([4]; 125 g ai/ha, Preemergence, visual injury rating after approximately 10 d, read-out: Pigweed plant response rating (0 to 100 scale, 0 is no effect, 100 is complete control)) | pest or weed control at 500 g/ha ([6]; 500 g ai/ha, preemergence, visual injury rating about 10 d after treatment, 0 to 100 scale (0 no effect, 100 complete control), read-out: Ryegrass, Italian plant response rating) | Corn plant response rating (crop injury, 0 = no effect, 100 = complete kill) at 500 g/ha (corn (Zea mays); [20])
50%: pest or weed control at 500 g/ha [11, 20]
100%: pest or weed control at 500 g/ha [9, 20]
